Values after ≈ are worked out from the molar mass of the structure shown.
Experiments:
[1] = Conversion of crystal form C in 1:1 mixtures with other crystal forms in solvent; format: physicochemical
[2] = Equilibration with solvent at 25° C., solid investigated by XRPD; format: physicochemical; parameters: key to XRPD change after equilibration: “−”: no change detected; “+”: change detected; “//”: not carried out because substance too soluble in the solvent
Procedure: Equilibration with Solvent at 25° C.
For equilibration at 25° C., about 50 mg of compound I was equilibrated with 1 ml solvent for 24 h in a water bath at 25° C.±0.1. The solutions were filtered and dried for 10 minutes in the air. The solid part was investigated by XRPD (X-ray powder diffraction). If differences were observed additional investigations were performed as appropriate (e.g. DSC, TG, IR, SEM).
The X-ray powder diffraction (XRPD) patterns described herein were recorded on a Bruker D8 Advance diffractometer using CuKα radiation. The XRPD pattern was recorded between 2° and 40° (2-theta).

[3] = Hygroscopicity (water uptake) of crystal form E; format: physicochemical
Procedure: The maximum water uptake is less than 0.1% at 25° C. up to 92% relative humidity.

[4] = Solubility of crystal form E at 25° C., analysis by HPLC; format: physicochemical; settings: thermodynamic from solid
Procedure: Solubility of crystal form E was measured at 25° C.

[5] = Intrinsic dissolution rate at 37° C.; format: physicochemical
[6] = Exploratory formulation stability at room temperature and 40° C. (UPLC assay); format: physicochemical; settings: part of compound I in solution in the supernatant; after 12 weeks at 40° C.
Procedure: Based on the limited solubility of compound I in various solvents and in water, a suspension formulation was explored for development. The following five formulations were prepared and tested for stability. Formulations were stored in crimp-sealed glass vials at room temperature and at 40° C. At 6, 8 and 12 weeks, samples were evaluated for compound I stability.
The formulations prepared in Table 13 were assayed using an exploratory UPLC method developed for the assay of compound I as shown in Table 14.
Results from the testing for compound I stability at room temperature and 40° C. are shown in FIG. 14A and FIG. 14B, respectively. […] In contrast, the part of compound I in solution in the supernatant degrades to about 20% of initial amount after 12 weeks at 40° C.

[7] = Pharmacokinetic study of exploratory formulations, single bilateral topical ocular dosing; format: in vivo, rabbit; settings: male NZW rabbits
Procedure: A pharmacokinetics study was conducted to determine the ocular uptake of compound I following single bilateral topical ocular dosing of male NZW rabbits with the same four exploratory formulations provided in Table 13: FID 12152, FID 121511, FID 121512, FID 121513.

[8] = equilibration at 25° C., solvent t-butylmethylether

Structure (SMILES): CC(C)c1nc2cc(O)ccc2c(=O)n1-c1ccc(C#N)cc1 [Crystal form C, 4-(7-Hydroxy-2-isopropyl-4-oxo-4H-quinazolin-3-yl)-benzonitrile]
- conversion of crystal form ([1]; 1:1 mixture with crystal form A, in methanol): converted in methanol to Solvate SB (crystal form G)
- conversion of crystal form ([1]; 1:1 mixture with crystal form B, in isopropanol): converted in isopropanol to crystal form B

Structure (SMILES): CC(C)c1nc2cc(O)ccc2c(=O)n1-c1ccc(C#N)cc1 [Crystal form E, 4-(7-Hydroxy-2-isopropyl-4-oxo-4H-quinazolin-3-yl)-benzonitrile]
- Comments ([2]; equilibration at 25° C., solvent Acetone): too soluble
- XRPD change after equilibration ([2]; equilibration at 25° C., solvent Cyclohexane): −
- XRPD change after equilibration ([2]; equilibration at 25° C., solvent Ethanol abs.): −
- XRPD change after equilibration ([2]; equilibration at 25° C., solvent Ethyl acetate): −
- XRPD change after equilibration ([2]; equilibration at 25° C., solvent Water): −
- Comments [2, 8]: amorphous
- XRPD change after equilibration [2, 8]: +
- Comments ([2]; form E mixed with form B, equilibration at 25 degree C., solvent Ethanol abs.): converts into crystal form B
- hygroscopicity [3]: non-hygroscopic
- maximum water uptake ([3]; at 25° C. up to 92% relative humidity): less than 0.1%
- solubility ([4]; acetate buffer pH 4.5, 25 °C, aqueous buffer, Buffer pH 4.5 (acetate)): 10 µg/mL (≈ 32.8 µM)
- solubility ([4]; buffer pH 1 (0.1 N HCl), 25 °C, pH 1, simulated gastric fluid): 345 µg/mL (≈ 1130 µM)
- solubility ([4]; phosphate buffer pH 6.88, 25 °C, aqueous buffer, Buffer pH 6.88 (phosphate)): 11 µg/mL (≈ 36 µM)
- Intrinsic dissolution rate (IDR) at 37° C. ([5]; HCl 0.1 N): 0.0194 mg min^−1 cm^−2
- Intrinsic dissolution rate (IDR) at 37° C. ([5]; pH 3): 0.0025 mg min^−1 cm^−2

Structure (SMILES): CC(C)c1nc2cc(O)ccc2c(=O)n1-c1ccc(C#N)cc1 [compound I, 4-(7-hydroxy-2-isopropyl-4-oxo-4H-quinazolin-3-yl)-benzonitrile]
- compound I remaining, of initial amount [6]: about 20%
- exposure in the cornea, times the levels in plasma [7]: approximately 500 times
- exposure in the cornea, times the levels in the aqueous humor and iris-ciliary body [7]: approximately 10 times
